*1 amine or outer side, *2 acyl side, *3 side chain or, on linkers, in order; H or OH if unused. Where a SMILES comes first, the peptide text is derived from it. Bridges are numbered along the chain shown (N, C = ends). [ ]: non-standard residue; d: D form. The star is where a group is joined. X126 = CC(C)C(=O)N1[C@H]2COC[C@@H]1C=C(c1ccc(F)cc1C[C@@H](C(=O)[*:2])N(C)[*:1])C2; X138 = CN([C@@H](Cc1cc(Cl)ccc1-c1ccc(S(=O)(=O)N2CCCC2)cc1)C(=O)[*:2])[*:1]; X122 = CN([C@@H](Cc1cc(Cl)ccc1C1=CCN(C(=O)C(C)(C)C)CC1)C(=O)[*:2])[*:1]; X151 = CN([C@@H](Cc1cc(Cl)ccc1-c1cnn(C2CCC2)c1)C(=O)[*:2])[*:1]; NMehhhLys(Me) = CN([C@@H](CCCCCCCN(C)[*:3])C(=O)[*:2])[*:1]; NMe(hhhLys) = CN([C@@H](CCCCCCCN[*:3])C(=O)[*:2])[*:1]; X152 = CN([C@@H](Cc1cc(Cl)ccc1OC1CC1)C(=O)[*:2])[*:1]; cBuCO(3,3-F2-1-CF3) = O=C(C1(C(F)(F)F)CC(F)(F)C1)*; X173 = CN([C@@H](Cc1cc(Cl)cs1)C(=O)[*:2])[*:1]; Pro(trans-4-F) = O=C(O)[C@@H]1C[C@@H](F)CN1; Gly(cPr) = N[C@H](C(=O)O)C1CC1
Tests used:
CyclinA2/CDK2 = biological target: T1, CyclinA2/CDK2 (Homo sapiens, UniProt P20248); experiment: Fluorescence Polarization (FP) competitive binding assay, Cyclin A2/Cdk2; conditions: 8 nM Cyclin A2/Cdk2, 2 nM FAM probe; average of 2-3 independent experiments; read-out: Cyclin A FP IC50;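 further: plates equilibrated two hours at room temperature before polarization reading, IC50 fitted from eight-concentration compound titration curves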
T1 construct: purchased CRELUX Protein Services

CyclinB1/CDK1 = biological target: T2, CyclinB1/CDK1 (Homo sapiens, UniProt P14635); experiment: Fluorescence Polarization (FP) competitive binding assay, Cyclin B1/Cdk1; conditions: 10 nM Cyclin B1/Cdk1, 2 nM FAM probe; average of 2-3 independent experiments; read-out: Cyclin B FP IC50;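 further: fluorescence polarization read after equilibration at room temperature, with IC50 taken from serially diluted dose-response curves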
T2 construct: purchased Eurofins, discovery 14-450

CyclinE1/CDK2 = biological target: T3, CyclinE1/CDK2 (Homo sapiens, UniProt P24864); experiment: Fluorescence Polarization (FP) competitive binding assay, Cyclin E1/Cdk2; conditions: 10 nM Cyclin E1/Cdk2, 2 nM FAM probe; average of 2-3 independent experiments; read-out: Cyclin E FP IC50;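 further: readings taken after two-hour equilibration at room temperature in HEPES buffer with NaCl, DTT, NP-40 and BSA, IC50 fitted from eight-concentration serial dilution series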
T3 construct: purchased Eurofins, discovery 14-475

NCI-H1048 cells = experiment: MTT proliferation assay, NCI-H1048; format: cell-based; conditions: 5 days compound exposure, 1:3 serial dilution starting at 10 μM;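 further: Dose-response in 96-well plates over 8 or 10 concentration points, with exposure spanning 3-4 cell doublings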
OVCAR3 cells = experiment: MTT proliferation assay, OVCAR3; format: cell-based; conditions: 5 days compound exposure, 1:3 serial dilution starting at 10 μM;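 further: compound given as an 8- or 10-point series, one day after plating, with exposure covering roughly 3-4 cell doublings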

SMILES	IC50 (CyclinA2/CDK2) [nM]	IC50 (CyclinB1/CDK1) [nM]	IC50 (CyclinE1/CDK2) [nM]	GI50 (NCI-H1048 cells) [nM]	GI50 (OVCAR3 cells) [nM]
CC(C)C[C@@H]1NC(=O)[C@@H](N(C)C(=O)[C@@H](NC(=O)[C@@H]2C[C@@H](F)CN2C(=O)C2(C(F)(F)F)CC(F)(F)C2)C2CC2)CCCCCCCNC(=O)[C@H](Cc2cc(Cl)ccc2OC2CC2)N(C)C1=O [Example 311] ({cBuCO(3,3-F2-1-CF3)}-[Pro(trans-4-F)][Gly(cPr)][NMe(hhhLys)]L[X152]; lactam 3-C)	50	20	200	20	30
CC(C)C[C@@H]1NC(=O)[C@@H](N(C)C(=O)[C@@H](NC(=O)[C@@H]2C[C@@H](F)CN2C(=O)C2(C(F)(F)F)CC(F)(F)C2)C2CC2)CC=CCCCCNC(=O)[C@H](Cc2cc(F)cnc2OC2CC2)N(C)C1=O [Example 125]	1010	20	1140	490	550
CC(C)C[C@@H]1NC(=O)[C@@H](N(C)C(=O)[C@@H](NC(=O)[C@@H]2C[C@@H](F)CN2C(=O)C2(C(F)(F)F)CC(F)(F)C2)C2CC2)CC=CCCCCNC(=O)[C@H](Cc2cc(Cl)ccc2-c2cnn(CCO)c2)N(C)C1=O [Example 28]	40	20	740	80	170
CC(C)C[C@@H]1NC(=O)[C@@H](N(C)C(=O)[C@@H](NC(=O)[C@@H]2C[C@@H](F)CN2C(=O)C2(C(F)(F)F)CC(F)(F)C2)C2CC2)CCCC=CCCNC(=O)[C@H](Cc2cc(Cl)ccc2-c2cnn(C3CC3)c2)N(C)C1=O [Example 287]	60	20	1940	40	40
CC(C)C[C@@H]1NC(=O)[C@@H](N(C)C(=O)[C@@H](NC(=O)[C@@H]2C[C@@H](F)CN2C(=O)C2(C(F)(F)F)CC(F)(F)C2)C2CC2)CCCCCCCNC(=O)[C@H](Cc2cc(Cl)ccc2C2=CCN(C(=O)C(C)(C)C)CC2)N(C)C1=O [Example 99] ({cBuCO(3,3-F2-1-CF3)}-[Pro(trans-4-F)][Gly(cPr)][NMe(hhhLys)]L[X122]; lactam 3-C)	20	20	1540	20	30
CC(C)C[C@@H]1NC(=O)[C@@H](N(C)C(=O)[C@@H](NC(=O)[C@@H]2C[C@@H](F)CN2C(=O)C2(C(F)(F)F)CC(F)(F)C2)C2CC2)CCCCCCCN(C)C(=O)[C@H](Cc2cc(Cl)cs2)N(C)C1=O [Example 426] ({cBuCO(3,3-F2-1-CF3)}-[Pro(trans-4-F)][Gly(cPr)][NMehhhLys(Me)]L[X173]; lactam 3-C)	110	20	2060	90	150
CC(C)C[C@@H]1NC(=O)[C@@H](N(C)C(=O)[C@@H](NC(=O)[C@@H]2C[C@@H](F)CN2C(=O)C2(C(F)(F)F)CC(F)(F)C2)C2CC2)CCCCCCCNC(=O)[C@H](Cc2cc(F)ccc2C2=C[C@H]3COC[C@@H](C2)N3C(=O)C(C)C)N(C)C1=O [Example 326] ({cBuCO(3,3-F2-1-CF3)}-[Pro(trans-4-F)][Gly(cPr)][NMe(hhhLys)]L[X126]; lactam 3-C)	20	20	150	10	10
CC(C)C[C@@H]1NC(=O)[C@@H](N(C)C(=O)[C@@H](NC(=O)[C@@H]2C[C@@H](F)CN2C(=O)C2(C(F)(F)F)CC(F)(F)C2)C2CC2)CCCCCCCN(C)C(=O)[C@H](Cc2cc(Cl)ccc2-c2ccc(S(=O)(=O)N3CCCC3)cc2)N(C)C1=O [Example 266] ({cBuCO(3,3-F2-1-CF3)}-[Pro(trans-4-F)][Gly(cPr)][NMehhhLys(Me)]L[X138]; lactam 3-C)	20	20	2220	30	50
CC(C)C[C@@H]1NC(=O)[C@@H](N(C)C(=O)[C@@H](NC(=O)[C@@H]2C[C@@H](F)CN2C(=O)C2(C(F)(F)F)CC(F)(F)C2)C2CC2)CCCCCCCN(C)C(=O)[C@H](Cc2cc(Cl)ccc2-c2cnn(C3CCC3)c2)N(C)C1=O [Example 112] ({cBuCO(3,3-F2-1-CF3)}-[Pro(trans-4-F)][Gly(cPr)][NMehhhLys(Me)]L[X151]; lactam 3-C)	20	20	340	10	10
Cc1nnc(-c2ccc(Cl)cc2C[C@H]2C(=O)NCCCCC=CC[C@H](N(C)C(=O)[C@@H](NC(=O)[C@@H]3C[C@@H](F)CN3C(=O)C3(C(F)(F)F)CCC3)C3CC3)C(=O)N[C@@H](CC(C)C)C(=O)N2C)o1 (single isomer, unassigned) [Example 117-P1]	80	20	340	230	180
